PMC4593760 (Nuclear medicine and biology, 2015)

Molecular target: NTR1 (Homo sapiens, UniProt P30989)
Assay: In vitro competitive binding on HT-29 cells against 177Lu-N1

NTR1, sequence (P30989 whole entry): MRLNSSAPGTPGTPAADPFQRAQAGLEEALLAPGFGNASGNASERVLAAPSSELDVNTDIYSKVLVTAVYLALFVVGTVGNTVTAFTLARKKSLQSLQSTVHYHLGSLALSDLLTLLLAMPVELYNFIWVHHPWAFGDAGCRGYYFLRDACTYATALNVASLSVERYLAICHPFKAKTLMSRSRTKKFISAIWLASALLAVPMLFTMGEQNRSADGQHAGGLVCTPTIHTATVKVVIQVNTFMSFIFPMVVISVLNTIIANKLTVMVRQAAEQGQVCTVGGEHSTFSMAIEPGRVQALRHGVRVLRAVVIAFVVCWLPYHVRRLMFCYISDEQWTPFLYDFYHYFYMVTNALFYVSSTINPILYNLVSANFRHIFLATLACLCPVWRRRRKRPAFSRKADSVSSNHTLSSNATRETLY

Row | SMILES | IC50 [µM]
1 | Cc1cc(O)cc(C)c1C[C@H](NC(=O)[C@@H]1CCCN1C(=O)[C@H](CCCNC(=N)N)NC(=O)[C@H](CCCNC(=N)N)N(C)C(=O)[C@@H]1CCCN1C(=O)[C@H](CCCCN)NC(=O)CCNC(=O)CN1CCN(CC(=O)O)CCN(CC(=O)O)CCN(CC(=O)O)CC1)C(=O)N[C@H](C(=O)N[C@@H](CC(C)C)C(=O)O)C(C)(C)C [N1, DOTA-β-Ala-Lys-Pro-(N-Me)Arg-Arg-Pro-Dmt-Tle-Leu-OH] | 0.0276 ± 0.0013
2 | Cc1cc(O)cc(C)c1C[C@H](NC(=O)[C@@H]1CCCN1C(=O)[C@H](CCCNC(=N)N)NC(=O)[C@H](CCCNC(=N)N)N(C)C(=O)[C@@H]1CCCN1C(=O)[C@H](CCCCN)NC(=O)CN1CCN(CC(=O)O)CCN(CC(=O)O)CCN(CC(=O)O)CC1)C(=O)N[C@H](C(=O)N[C@@H](CC(C)C)C(=O)O)C(C)(C)C [N0, DOTA-Lys-Pro-(N-Me)Arg-Arg-Pro-Dmt-Tle-Leu-OH] | 0.0523 ± 0.0015
